Laboratory results taken from patent US20220401324A1, “COSMETIC PREPARATION WITH ANISIC ACID AND LEVULINIC ACID, HAVING SELECTIVE ANTIMICROBIAL EFFECT” (BEIERSDORF AG, priority 2019, published 2022).

Experiments:
[1] = system: S. epidermidis (DSM 1798); assay: Suspension test with S. epidermidis; type: cell-based, Staphylococcus epidermidis; conditions: BHI medium, sampled after 1 h, 3 h and 6 h
Protocol: (§1) The effect of the formulations according to the invention was further tested in suspension tests with S. epidermidis and C. acnes. […] These liquid stock cultures were used to prepare a first passage. Here, a sterile disposable inoculation loop was used to streak the relevant culture on an agar plate (C. acnes: COST agar, S. epidermidis: COAST agar) and the culture was then incubated. The cultures of C. acnes were incubated at 37° C. for 5 days, whereas the cultures of S. epidermidis were incubated at 37° C. for 24 h. Said first passage was then used to prepare a second passage by picking of a few colonies using a sterile disposable inoculation loop and subsequent streaking thereof onto a new agar plate. Said second passage was then incubated at the appropriate temperature for 5 days or 24 h. The second passage obtained was then used for the suspension test.
(§2) To prepare the suspensions, a few colonies of the second passage were removed using a sterile inoculation loop and added to 10 mL of medium in a baffled flask containing 5 g of glass beads (4 mm diameter) and gently shaken for 3 min. Thereafter, optical density (OD) was used to set the approximate number of cells per mL. Optical density was determined at 600 nm using an Eppendorf photometer. The OD obtained was adjusted to a value around 0.8 (±0.01) and then diluted again 1:50. […]

C. acnes (DSM 1897) = assay: Suspension test with C. acnes; type: cell-based, Cutibacterium acnes; conditions: anaerobic medium, sampled after 1 h, 3 h and 6 h
Protocol: as §1, §2

Row | Structure (SMILES) | growth of the aerobic bacterium S. epidermidis (FIGS. 4 and 5) [1] | cell count of the anaerobic bacterium C. acnes (FIGS. 4 and 5) (C. acnes (DSM 1897))
1 | COc1ccc(C(=O)O)cc1 [anisic acid, 4-methoxybenzoic acid] | does not significantly affect the growth | does not lead to a reduction in the cell count
2 | CC(=O)CCC(=O)O [levulinic acid, 4-oxopentanoic acid] | does not significantly affect the growth | does not lead to a reduction in the cell count
